Measurements as given in US4298690A, “Antibiotics XK-62-3 and XK-62-4 and process for production thereof” (Kyowa Hakko Kogyo Co., Ltd., priority 1977, dated 1981).
In brackets after ≈: the same amount, converted by molar mass. Structures can show the parent of a compound that is named as a salt.

What was measured:
[1] = test system: resistant strains of Escherichia coli and Pseudomonas aeruginosa (6'-N-acetylation); settings: strains with 6'-N-acetylation, etc.; known antibiotics; cited from earlier work
[2] = test system: Bacillus subtilis No. 10707; assay: Activity (units) of purified preparate; type: cell-based; settings: for activity: per mg not given, Examples 2D, 3, 4
Protocol: The activity of the eluate is determined against Bacillus subtilis No. 10707 by a paper disk method using an agar plate. Active fractions are combined and concentrated in vacuo to about 3 L. The concentrate is adjusted to pH 8.0 with 6 N sulfuric acid and passed through a column packed with 3 L of an anion exchange resin, Dowex 1×2 (OH^- form). The column is washed with about 20 L of water and active principles are eluted with 1 N aqueous ammonia. The active fractions are combined and concentrated to 1/10 by volume. The pH of the concentrate is adjusted to 10.5 with 6 N sodium hydroxide and 4 volumes of acetone is added thereto. The resulting precipitate is removed by filtration and the acetone layer is concentrated to 2 L. The concentrate is adjusted to pH 4.5 with 6 N sulfuric acid and then 10 L of methanol is added thereto. After cooling, a white precipitate is obtained. The precipitate is separated by filtration and washed with methanol. After drying in vacuo, about 250 g of white powder (sulfate form) is obtained.
The residue is dissolved in a small amount of water and the solution is freeze-dried to obtain about 1.5 g of purified preparate of the free base of XK-62-3.
The residue is dissolved in a small amount of water and the solution is freeze-dried to obtain about 2.2 g of purified preparate of the free base of XK-62-4.
After the completion of fermentation, the culture liquor is adjusted to pH 2.0 with 12 N sulfuric acid and stirred for 30 minutes. Then, about 20 kg of Radiolite No. 600 (filter aid) is added thereto and the microbial cells are removed by filtration. The filtrate is adjusted to pH 8.0 with 6 N sodium hydroxide and passed through a column packed with 100 L of a cation exchange resin, Amberlite IRC-50 (NH4^+ form). After washing the resin with water, the active substances are eluted out with 1 N aqueous ammonia. The eluate is obtained in fractions and the activity of each of the fractions is determined against Bacillus subtilis No. 10707 by a paper disc method using an agar plate. The eluate is concentrated to 2 L under reduced pressure. The concentrate is adjusted to pH 4.5 with 6 N sulfuric acid and the resulting insoluble substance is removed by filtration. To the filtrate 20 L of methanol is added to form a white precipitate. The precipitate is separated by filtration and washed with methanol. After drying in vacuo, 500 g of white powder, of a crude XK-62 series (sulfate form) is obtained.

[3] = Acute toxicity in dd-mice; settings: mouse, in vivo
[4] = test system: Shigella sonnei ATCC 9290; assay: MIC by agar dilution method at pH 8.0, Shigella sonnei ATCC 9290; type: cell-based; settings: ATCC9290, read-out: Minimum Inhibitory Concentration
Excerpt: (§1) Table 4 illustrates the antibacterial spectra of XK-62-3 and XK-62-4 against various microorganisms.
(§2) (Minimum Inhibitory Concentration, γ/ml
(§3) measured by agar dilution method at pH 8.0)

[5] = Solubility of the free base; type: physicochemical; settings: for solubility in organic solvents: chloroform, benzene, ethyl acetate, butyl acetate, ether, butanol, petroleum ether, n-hexane
Escherichia coli ATCC 26 = assay: MIC by agar dilution method at pH 8.0, Escherichia coli ATCC 26; type: cell-based; settings: ATCC26, read-out: Minimum Inhibitory Concentration
Excerpt: as §1, §2, §3

[6] = test system: Proteus vulgaris ATCC 6897; assay: MIC by agar dilution method at pH 8.0, Proteus vulgaris ATCC 6897; type: cell-based; settings: ATCC6897, read-out: Minimum Inhibitory Concentration
Excerpt: as §1, §2, §3

[7] = test system: Pseudomonas aeruginosa Z 444; assay: MIC by agar dilution method at pH 8.0, Pseudomonas aeruginosa Z 444; type: cell-based; settings: Z444, Pseudomonas aeruginosa Z 444, resistant to gentamicin, AAC(6')-III, read-out: Minimum Inhibitory Concentration
Excerpt: as §1, §2, §3

[8] = test system: Serratia marcescens KY 4248; assay: MIC by agar dilution method at pH 8.0, Serratia marcescens KY 4248; type: cell-based; settings: KY4248, read-out: Minimum Inhibitory Concentration
Excerpt: as §1, §2, §3

[9] = test system: Salmonella typhosa ATCC 9992; assay: MIC by agar dilution method at pH 8.0, Salmonella typhosa ATCC 9992; type: cell-based; settings: Salmonella enterica, pH 8, read-out: Minimum Inhibitory Concentration
Excerpt: as §1, §2, §3

[10] = test system: Pseudomonas aeruginosa Z 445; assay: MIC by agar dilution method at pH 8.0, Pseudomonas aeruginosa Z 445; type: cell-based; settings: Z445, Pseudomonas aeruginosa Z 445, resistant to gentamicin, AAC(6')-III, read-out: Minimum Inhibitory Concentration
Excerpt: as §1, §2, §3

Escherichia coli KY 8332 = assay: MIC by agar dilution method at pH 8.0, Escherichia coli KY 8332; type: cell-based; settings: KY8332, Escherichia coli KY 8332, resistant to kanamycin, AAC(6')-I, read-out: Minimum Inhibitory Concentration
Excerpt: as §1, §2, §3

[11] = test system: Pseudomonas aeruginosa KY 8563; assay: MIC by agar dilution method at pH 8.0, Pseudomonas aeruginosa KY 8563; type: cell-based; settings: KY8563, Pseudomonas aeruginosa KY 8563, resistant to gentamicin, AAC(3)-II, read-out: Minimum Inhibitory Concentration
Excerpt: as §1, §2, §3

[12] = test system: Klebsiella pneumoniae ATCC 10031; assay: MIC by agar dilution method at pH 8.0, Klebsiella pneumoniae ATCC 10031; type: cell-based; settings: ATCC10031, read-out: Minimum Inhibitory Concentration
Excerpt: as §1, §2, §3

[13] = test system: Gram-positive and Gram-negative bacteria; assay: Antibacterial activity against a broad range of bacteria (in words); type: cell-based
Excerpt: as §1, §2, §3

[14] = test system: Staphylococcus aureus ATCC 6538P; assay: MIC by agar dilution method at pH 8.0, Staphylococcus aureus ATCC 6538P; type: cell-based; settings: ATCC6538P, read-out: Minimum Inhibitory Concentration
Excerpt: as §1, §2, §3

[15] = test system: Bacillus subtilis No. 10707; assay: MIC by agar dilution method at pH 8.0, Bacillus subtilis No. 10707; type: cell-based; settings: read-out: Minimum Inhibitory Concentration
Excerpt: as §1, §2, §3

[16] = test system: Pseudomonas aeruginosa BMH No. 1; assay: MIC by agar dilution method at pH 8.0, Pseudomonas aeruginosa BMH No. 1; type: cell-based; settings: BMHNO.1, read-out: Minimum Inhibitory Concentration
Excerpt: as §1, §2, §3

Escherichia coli KY 8310 = assay: MIC by agar dilution method at pH 8.0, Escherichia coli KY 8310; type: cell-based; settings: KY8310, read-out: Minimum Inhibitory Concentration
Excerpt: as §1, §2, §3

[17] = test system: Klebsiella pneumoniae KY 4261; assay: MIC by agar dilution method at pH 8.0, Klebsiella pneumoniae KY 4261; type: cell-based; settings: KY4261, read-out: Minimum Inhibitory Concentration
Excerpt: as §1, §2, §3

[18] = test system: resistant strains of Escherichia coli and Pseudomonas aeruginosa (6'-N-acetylation); assay: Antibacterial activity against resistant strains with 6'-N-acetylation (in words); type: cell-based; settings: E. coli and P. aeruginosa resistant by 6'-N-acetylation, etc.
Excerpt: as §1, §2, §3

[19] = test system: Pseudomonas aeruginosa KY 8511; assay: MIC by agar dilution method at pH 8.0, Pseudomonas aeruginosa KY 8511; type: cell-based; settings: KY8511, Pseudomonas aeruginosa KY 8511, resistant to gentamicin, AAC(3)-I, read-out: Minimum Inhibitory Concentration
Excerpt: as §1, §2, §3

[20] = test system: resistant strains of Escherichia coli and Pseudomonas aeruginosa (3-N-acetylation, 2"-adenylation); assay: Antibacterial activity against resistant strains with 3-N-acetylation, 2"-adenylation (in words); type: cell-based; settings: E. coli and P. aeruginosa resistant by 3-N-acetylation, etc.
Excerpt: as §1, §2, §3

Providenicia sp. KY 8464 = assay: MIC by agar dilution method at pH 8.0, Providenicia sp. KY 8464; type: cell-based; settings: read-out: Minimum Inhibitory Concentration
Excerpt: as §1, §2, §3

Escherichia coli KY 8327 = assay: MIC by agar dilution method at pH 8.0, Escherichia coli KY 8327; type: cell-based; settings: KY8327, pH 8, read-out: Minimum Inhibitory Concentration
Excerpt: as §1, §2, §3

Escherichia coli KY 8348 = assay: MIC by agar dilution method at pH 8.0, Escherichia coli KY 8348; type: cell-based; settings: KY8348, Escherichia coli KY 8348, resistant to gentamicin, AAC(3)-I, read-out: Minimum Inhibitory Concentration
Excerpt: as §1, §2, §3

Escherichia coli KY 8356 = assay: MIC by agar dilution method at pH 8.0, Escherichia coli KY 8356; type: cell-based; settings: KY8356, read-out: Minimum Inhibitory Concentration
Excerpt: as §1, §2, §3

[21] = test system: resistant strains of Escherichia coli and Pseudomonas aeruginosa (3-N-acetylation, 2"-adenylation); settings: strains with 3-N-acetylation, etc., known antibiotics; cited from earlier work
[22] = free base, Example 1, 1 mg of pure preparate corresponds to 1000 units

## NCC1OC(OC2C(N)CC(N)C(OC3OC(CO)C(O)C(N)C3O)C2O)C(O)C(O)C1O (stereo not shown) [kanamycin A]
[1]
  effect on resistant strains: ineffective

## CNC1C(O)C(OC2C(N)CC(N)C(OC3OC(CN(C)C)CCC3N)C2O)OCC1(C)O (stereo not shown) [sulfate salt of XK-62-4]
[2]
  activity: about 625 units

## CNC1C(O)C(OC2C(N)CC(N)C(OC3OC(CN(C)C)CCC3N)C2O)OCC1(C)O (stereo not shown) [XK-62-4]
[3]
  LD50: 25.9 mg/kg
[4]
  MIC: 0.066 µg/mL (≈ 0.138 µM)
[5]
  solubility in organic solvents: insoluble
  solubility in ethanol and acetone: slightly soluble
  solubility in methanol: soluble
  solubility in water: very soluble
Escherichia coli ATCC 26
  MIC: 0.033 µg/mL (≈ 0.0691 µM)
[6]
  MIC: 0.13 µg/mL (≈ 0.272 µM)
[7]
  MIC: 0.26 µg/mL (≈ 0.544 µM)
[8]
  MIC: 0.26 µg/mL (≈ 0.544 µM)
[9]
  MIC: 0.011 µg/mL (≈ 0.023 µM)
[10]
  MIC: 0.26 µg/mL (≈ 0.544 µM)
Escherichia coli KY 8332
  MIC: 0.033 µg/mL (≈ 0.0691 µM)
[11]
  MIC: > 10 µg/mL
[12]
  MIC: 0.0082 µg/mL (≈ 0.0172 µM)
[2]; [22]
  activity of purified preparate: about 980 unit/mg
[2]
  activity: 970 units
[13]
  antibacterial activity: very strong antibacterial activity
[14]
  MIC: 0.0021 µg/mL (≈ 0.0044 µM)
[15]
  MIC: < 0.0011 µg/mL
[16]
  MIC: 0.26 µg/mL (≈ 0.544 µM)
Escherichia coli KY 8310
  MIC: 0.066 µg/mL (≈ 0.138 µM)
[17]
  MIC: 0.066 µg/mL (≈ 0.138 µM)
[18]
  antibacterial activity against certain resistant strains: strong antibacterial activity

## NC[C@@H]1CC[C@@H](N)[C@@H](O[C@H]2[C@H](O)[C@@H](O[C@H]3O[C@H](CO)[C@@H](O)[C@H](N)[C@H]3O)[C@H](N)C[C@@H]2N)O1 [dibekacin, 3,4-dideoxy kanamycin B]
[1]
  effect on resistant strains: ineffective

## CNC1CC(N)C(OC2OCC(C)(O)C(NC)C2O)C(O)C1OC1OC(CN)CCC1N (stereo not shown) [sulfate salt of XK-62-3]
[2]
  activity: about 630 units

## CNC1CC(N)C(OC2OCC(C)(O)C(NC)C2O)C(O)C1OC1OC(CN)CCC1N (stereo not shown) [XK-62-3]
[3]
  LD50: 106 mg/kg
[4]
  MIC: 0.13 µg/mL (≈ 0.28 µM)
[5]
  solubility in organic solvents: insoluble
  solubility in ethanol and acetone: slightly soluble
  solubility in methanol: soluble
  solubility in water: very soluble
Escherichia coli ATCC 26
  MIC: 0.066 µg/mL (≈ 0.142 µM)
[6]
  MIC: 0.26 µg/mL (≈ 0.561 µM)
[7]
  MIC: > 10 µg/mL
[8]
  MIC: 1.52 µg/mL (≈ 3.28 µM)
[19]
  MIC: 0.26 µg/mL (≈ 0.561 µM)
[9]
  MIC: 0.033 µg/mL (≈ 0.0712 µM)
[11]
  MIC: 0.25 µg/mL (≈ 0.539 µM)
[20]
  antibacterial activity against certain resistant strains: strong antibacterial activity
Providenicia sp. KY 8464
  MIC: 1.04 µg/mL (≈ 2.24 µM)
Escherichia coli KY 8327
  MIC: 0.066 µg/mL (≈ 0.142 µM)
[12]
  MIC: 0.0082 µg/mL (≈ 0.0177 µM)
[2]; Example 2
  activity of purified preparate: 970 units/mg
[2]; [22]
  activity of purified preparate: about 985 unit/mg
[13]
  antibacterial activity: very strong antibacterial activity
[14]
  MIC: 0.0021 µg/mL (≈ 0.00453 µM)
[15]
  MIC: < 0.0011 µg/mL
[16]
  MIC: 0.26 µg/mL (≈ 0.561 µM)
Escherichia coli KY 8310
  MIC: 0.066 µg/mL (≈ 0.142 µM)
[17]
  MIC: 0.066 µg/mL (≈ 0.142 µM)
Escherichia coli KY 8348
  MIC: 0.033 µg/mL (≈ 0.0712 µM)
Escherichia coli KY 8356
  MIC: 0.26 µg/mL (≈ 0.561 µM)

## CNCC1CCC(N)C(OC2C(N)CC(N)C(OC3OCC(C)(O)C(NC)C3O)C2O)O1 (stereo not shown) [sagamicin (antibiotic XK-62-2)]
[21]
  effect on resistant strains: ineffective

## NC[C@H]1O[C@H](O[C@H]2[C@H](O)[C@@H](O[C@H]3O[C@H](CO)[C@@H](O)[C@H](N)[C@H]3O)[C@H](N)C[C@@H]2N)[C@H](O)[C@@H](O)[C@@H]1O [kanamycin]
[21]
  effect on resistant strains: ineffective

## CN[C@@H]1[C@@H](O)[C@@H](O[C@@H]2[C@@H](O)[C@H](O[C@H]3OC(CN)=CC[C@H]3N)[C@@H](N)C[C@H]2N)OC[C@]1(C)O [sisomicin]
[1]
  effect on resistant strains: ineffective
